{"source": "patent US20110150836A1", "about": "“METHODS OF TREATING HBV AND HCV INFECTION” (Gilead Sciences, Inc., priority 2009, published 2011)", "test_system": "cytokines and interferon-inducible genes", "experiment": "mRNA expression of cytokines and interferon-inducible genes in whole blood of healthy woodchucks (real time PCR)", "type": "in vivo", "conditions": "for IDO mRNA expression in peripheral blood, Mean / IDO mRNA expression, Fold-change from T0 / IFN-a mRNA expression in peripheral blood, Mean / IFN-a mRNA expression, Fold-change from T0 / IFN-γ mRNA expression in peripheral blood, Mean / IFN-γ mRNA expression, Fold-change from T0 / IL-2 mRNA expression in peripheral blood, Mean / IL-2 mRNA expression, Fold-change from T0 / IL-6 mRNA expression in peripheral blood, Mean / IL-6 mRNA expression, Fold-change from T0 / IL-10 mRNA expression in peripheral blood, Mean / IL-10 mRNA expression, Fold-change from T0 / IL-12 mRNA expression in peripheral blood, Mean / IL-12 mRNA expression, Fold-change from T0 / MxA mRNA expression in peripheral blood, Mean / MxA mRNA expression, Fold-change from T0 / TNF-a mRNA expression in peripheral blood, Mean / TNF-a mRNA expression, Fold-change from T0 / 2′5′-OAS mRNA expression in peripheral blood, Mean / 2′5′-OAS mRNA expression, Fold-change from T0: oral 0.5 mg/kg", "procedure": "Compound A was administered orally to adult, WHV-negative woodchucks at two different doses. Three male woodchucks received Compound A at 0.05 mg/kg and three other male woodchucks at 0.5 mg/kg. Whole blood samples (4 mls) were collected from each woodchuck prior to dosing at T0, and then at 4, 8, 12, and 24 hours post-dose using EDTA-containing collection tubes.\nThe induction of an immune response in woodchucks following administration of Compound A was determined by measuring the mRNA expression of cytokines and interferon-inducible genes in whole blood samples collected at different time points. Total RNA was isolated using the QIAamp RNA Blood Mini Kit (Qiagen) according to the manufacturer's specifications. RNA was eluted into 40 μl nuclease-free water and stored at −70° C. The concentration of RNA was determined spectrophotometrically at OD 260 nm. Two μg of RNA were treated with DNase I (Invitrogen) and reverse transcribed to cDNA with MultiScribe Reverse Transcriptase (Applied Biosystems) using random hexamers. Triplicates of 2 μl cDNA were amplified by real time PCR on an ABI PRISM 7000 Sequence Detection instrument (Applied Biosystems) using SYBR GREEN Master Mix (Applied Biosystems) and woodchuck-specific primers. Amplified target genes included IFN-α, IFN-γ, TNF-α, IL-2, IL-6, IL-10 IL-12, 2′5′-OAS, IDO, and MxA. Woodchuck β-actin mRNA expression was used to normalize target gene expression. Transcription levels of woodchuck cytokines and interferon-inducible genes were represented by the formula 2ΔCt, where ΔCt indicates the difference in the threshold cycle between β-actin and target gene expression. Results were further represented as a fold-change from the transcription level at T0.", "data": [{"smiles": "CCCCOc1nc(N)c2nc(O)n(Cc3cccc(CN4CCCC4)c3)c2n1", "note": "[Compound A, 6-amino-2-butoxy-9-(3-(pyrrolidin-1-ylmethyl)benzyl)-9H-purin-8-ol]", "values": [{"measurement": "IDO mRNA expression in peripheral blood, Mean", "setting": "4 hrs", "value": 22.67}, {"measurement": "IDO mRNA expression, Fold-change from T0", "setting": "4 hrs", "value": 9.1, "unit": "fold"}, {"measurement": "IFN-a mRNA expression in peripheral blood, Mean", "setting": "4 hrs", "value": 19.14}, {"measurement": "IFN-a mRNA expression, Fold-change from T0", "setting": "4 hrs", "value": 3.9, "unit": "fold"}, {"measurement": "IFN-γ mRNA expression in peripheral blood, Mean", "setting": "4 hrs", "value": 2.80}, {"measurement": "IFN-γ mRNA expression, Fold-change from T0", "setting": "4 hrs", "value": 2.6, "unit": "fold"}, {"measurement": "IL-2 mRNA expression in peripheral blood, Mean", "setting": "4 hrs", "value": 4.32}, {"measurement": "IL-2 mRNA expression, Fold-change from T0", "setting": "4 hrs", "value": 2.2, "unit": "fold"}, {"measurement": "IL-6 mRNA expression in peripheral blood, Mean", "setting": "4 hrs", "value": 21.84}, {"measurement": "IL-6 mRNA expression, Fold-change from T0", "setting": "4 hrs", "value": 4.6, "unit": "fold"}, {"measurement": "IL-10 mRNA expression in peripheral blood, Mean", "setting": "4 hrs", "value": 4.01}, {"measurement": "IL-10 mRNA expression, Fold-change from T0", "setting": "4 hrs", "value": 1.5, "unit": "fold"}, {"measurement": "IL-12 mRNA expression in peripheral blood, Mean", "setting": "4 hrs", "value": 5.74}, {"measurement": "IL-12 mRNA expression, Fold-change from T0", "setting": "4 hrs", "value": 3.8, "unit": "fold"}, {"measurement": "MxA mRNA expression in peripheral blood, Mean", "setting": "4 hrs", "value": 5.96}, {"measurement": "MxA mRNA expression, Fold-change from T0", "setting": "4 hrs", "value": 3.6, "unit": "fold"}, {"measurement": "TNF-a mRNA expression in peripheral blood, Mean", "setting": "4 hrs", "value": 43.18}, {"measurement": "TNF-a mRNA expression, Fold-change from T0", "setting": "4 hrs", "value": 6.2, "unit": "fold"}, {"measurement": "2′5′-OAS mRNA expression in peripheral blood, Mean", "setting": "8 hrs", "value": 41.13}, {"measurement": "2′5′-OAS mRNA expression, Fold-change from T0", "setting": "8 hrs", "value": 8.3, "unit": "fold"}, {"measurement": "IDO mRNA expression in peripheral blood, Mean", "setting": "8 hrs", "value": 30.62}, {"measurement": "IDO mRNA expression, Fold-change from T0", "setting": "8 hrs", "value": 11.6, "unit": "fold"}, {"measurement": "IFN-a mRNA expression in peripheral blood, Mean", "setting": "8 hrs", "value": 48.85}, {"measurement": "IFN-a mRNA expression, Fold-change from T0", "setting": "8 hrs", "value": 10.4, "unit": "fold"}, {"measurement": "IFN-γ mRNA expression in peripheral blood, Mean", "setting": "8 hrs", "value": 7.81}, {"measurement": "IFN-γ mRNA expression, Fold-change from T0", "setting": "8 hrs", "value": 6.7, "unit": "fold"}, {"measurement": "IL-2 mRNA expression in peripheral blood, Mean", "setting": "8 hrs", "value": 3.12}, {"measurement": "IL-2 mRNA expression, Fold-change from T0", "setting": "8 hrs", "value": 2.0, "unit": "fold"}, {"measurement": "IL-6 mRNA expression in peripheral blood, Mean", "setting": "8 hrs", "value": 18.57}, {"measurement": "IL-6 mRNA expression, Fold-change from T0", "setting": "8 hrs", "value": 4.6, "unit": "fold"}, {"measurement": "IL-10 mRNA expression in peripheral blood, Mean", "setting": "8 hrs", "value": 17.31}, {"measurement": "IL-10 mRNA expression, Fold-change from T0", "setting": "8 hrs", "value": 6.6, "unit": "fold"}, {"measurement": "IL-12 mRNA expression in peripheral blood, Mean", "setting": "8 hrs", "value": 6.86}, {"measurement": "IL-12 mRNA expression, Fold-change from T0", "setting": "8 hrs", "value": 4.2, "unit": "fold"}, {"measurement": "MxA mRNA expression in peripheral blood, Mean", "setting": "8 hrs", "value": 12.86}, {"measurement": "MxA mRNA expression, Fold-change from T0", "setting": "8 hrs", "value": 7.9, "unit": "fold"}, {"measurement": "TNF-a mRNA expression in peripheral blood, Mean", "setting": "8 hrs", "value": 31.19}, {"measurement": "TNF-a mRNA expression, Fold-change from T0", "setting": "8 hrs", "value": 4.5, "unit": "fold"}, {"measurement": "2′5′-OAS mRNA expression in peripheral blood, Mean", "setting": "12 hrs", "value": 884.87}, {"measurement": "2′5′-OAS mRNA expression, Fold-change from T0", "setting": "12 hrs", "value": 185.6, "unit": "fold"}, {"measurement": "IDO mRNA expression in peripheral blood, Mean", "setting": "12 hrs", "value": 89.01}, {"measurement": "IDO mRNA expression, Fold-change from T0", "setting": "12 hrs", "value": 37.0, "unit": "fold"}, {"measurement": "IFN-a mRNA expression in peripheral blood, Mean", "setting": "12 hrs", "value": 7.12}, {"measurement": "IFN-a mRNA expression, Fold-change from T0", "setting": "12 hrs", "value": 1.5, "unit": "fold"}, {"measurement": "IFN-γ mRNA expression in peripheral blood, Mean", "setting": "12 hrs", "value": 4.36}, {"measurement": "IFN-γ mRNA expression, Fold-change from T0", "setting": "12 hrs", "value": 3.8, "unit": "fold"}, {"measurement": "IL-6 mRNA expression in peripheral blood, Mean", "setting": "12 hrs", "value": 6.25}, {"measurement": "IL-6 mRNA expression, Fold-change from T0", "setting": "12 hrs", "value": 1.4, "unit": "fold"}, {"measurement": "IL-10 mRNA expression in peripheral blood, Mean", "setting": "12 hrs", "value": 14.92}, {"measurement": "IL-10 mRNA expression, Fold-change from T0", "setting": "12 hrs", "value": 5.6, "unit": "fold"}, {"measurement": "IL-12 mRNA expression in peripheral blood, Mean", "setting": "12 hrs", "value": 49.93}, {"measurement": "IL-12 mRNA expression, Fold-change from T0", "setting": "12 hrs", "value": 30.1, "unit": "fold"}, {"measurement": "MxA mRNA expression in peripheral blood, Mean", "setting": "12 hrs", "value": 71.77}, {"measurement": "MxA mRNA expression, Fold-change from T0", "setting": "12 hrs", "value": 45.3, "unit": "fold"}, {"measurement": "TNF-a mRNA expression in peripheral blood, Mean", "setting": "12 hrs", "value": 62.30}, {"measurement": "TNF-a mRNA expression, Fold-change from T0", "setting": "12 hrs", "value": 9.0, "unit": "fold"}, {"measurement": "2′5′-OAS mRNA expression in peripheral blood, Mean", "setting": "24 hrs", "value": 64.27}, {"measurement": "2′5′-OAS mRNA expression, Fold-change from T0", "setting": "24 hrs", "value": 14.4, "unit": "fold"}, {"measurement": "IDO mRNA expression in peripheral blood, Mean", "setting": "24 hrs", "value": 1217.20}, {"measurement": "IDO mRNA expression, Fold-change from T0", "setting": "24 hrs", "value": 454.2, "unit": "fold"}, {"measurement": "IFN-a mRNA expression in peripheral blood, Mean", "setting": "24 hrs", "value": 4.15}, {"measurement": "IFN-a mRNA expression, Fold-change from T0", "setting": "24 hrs", "value": 0.9, "unit": "fold"}, {"measurement": "IFN-γ mRNA expression in peripheral blood, Mean", "setting": "24 hrs", "value": 2.16}, {"measurement": "IFN-γ mRNA expression, Fold-change from T0", "setting": "24 hrs", "value": 1.9, "unit": "fold"}, {"measurement": "IL-2 mRNA expression in peripheral blood, Mean", "setting": "24 hrs", "value": 13.38}, {"measurement": "IL-2 mRNA expression, Fold-change from T0", "setting": "24 hrs", "value": 5.9, "unit": "fold"}, {"measurement": "IL-6 mRNA expression in peripheral blood, Mean", "setting": "24 hrs", "value": 4.75}, {"measurement": "IL-6 mRNA expression, Fold-change from T0", "setting": "24 hrs", "value": 1.2, "unit": "fold"}, {"measurement": "IL-10 mRNA expression in peripheral blood, Mean", "setting": "24 hrs", "value": 8.74}, {"measurement": "IL-10 mRNA expression, Fold-change from T0", "setting": "24 hrs", "value": 3.3, "unit": "fold"}, {"measurement": "IL-12 mRNA expression in peripheral blood, Mean", "setting": "24 hrs", "value": 11.55}, {"measurement": "IL-12 mRNA expression, Fold-change from T0", "setting": "24 hrs", "value": 7.0, "unit": "fold"}, {"measurement": "MxA mRNA expression in peripheral blood, Mean", "setting": "24 hrs", "value": 758.52}, {"measurement": "MxA mRNA expression, Fold-change from T0", "setting": "24 hrs", "value": 518.8, "unit": "fold"}, {"measurement": "TNF-a mRNA expression in peripheral blood, Mean", "setting": "24 hrs", "value": 30.71}, {"measurement": "TNF-a mRNA expression, Fold-change from T0", "setting": "24 hrs", "value": 4.5, "unit": "fold"}, {"measurement": "mRNA expression of IFN-α, IFN-γ, TNF-alpha, IL-2, IL-6, IL-10, IL-12, 2′5′-OAS, IDO and MxA", "setting": "oral 0.05 and 0.5 mg/kg", "value": "induced dose-dependent increases in the mRNA expression"}, {"measurement": "time of maximal mRNA expression of IFN-α, IFN-γ, IL-6, and IL-10", "setting": "oral dosing", "value": 8, "unit": "hours post-dose"}, {"measurement": "time of maximal mRNA expression of IL-2, IDO, and MxA", "setting": "oral dosing", "value": 24, "unit": "hours post-dose"}, {"measurement": "time of maximal mRNA expression of TNF-α, IL-12, and 2′5′-OAS", "setting": "oral dosing", "value": 12, "unit": "hours post-dose"}]}]}
